In assay [1] the target is T1, recombinant human ALK5 (TGF-βR1) protein (Homo sapiens, UniProt P36897).
T1 construct: purchased Life Technologies PR9075A
T1 sequence (P36897 34-503): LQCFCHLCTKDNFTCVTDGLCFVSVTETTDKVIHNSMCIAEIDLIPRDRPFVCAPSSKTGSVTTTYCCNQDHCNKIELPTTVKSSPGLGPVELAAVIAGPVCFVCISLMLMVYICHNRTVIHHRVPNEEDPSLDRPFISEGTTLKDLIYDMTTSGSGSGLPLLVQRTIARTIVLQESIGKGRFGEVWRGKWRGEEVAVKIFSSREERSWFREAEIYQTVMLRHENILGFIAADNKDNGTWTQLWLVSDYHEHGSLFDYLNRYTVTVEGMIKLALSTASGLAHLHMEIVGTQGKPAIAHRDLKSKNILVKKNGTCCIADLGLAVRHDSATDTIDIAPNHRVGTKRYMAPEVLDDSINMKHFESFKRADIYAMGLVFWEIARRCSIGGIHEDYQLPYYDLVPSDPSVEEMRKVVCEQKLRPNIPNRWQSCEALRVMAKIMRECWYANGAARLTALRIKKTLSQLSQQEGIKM
Briefly: Biochemical ALK5 (TGF-βR1) assay to measure pKi (LANCE Ultra ULight kinase assay). The conditions noted are these: apparent pKi from pIC50 by Cheng-Prusoff, read-out: ALK5 pKi (converted). The essentials:
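Dose range 10 μM–25 pM; enzyme + compound 60 min RT; ATP added (5× stock 125 μM, 2 mM DTT); 60 min 37 °C; stop with EDTA + Eu anti-phospho-Topo IIα Thr1342 Ab; TR-FRET ex 320/340, em 665 nm. 4-param pIC50 → pKi (Cheng-Prusoff).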
Background: In TR-FRET formats the signal depends on donor and acceptor labels being close together.

The test system of assay [2] is TGF-β-stimulated SMAD3 phosphorylation in BEAS-2B cells. Briefly: Cellular ALK5 potency assay, inhibition of TGF-β stimulated pSMAD3 formation in BEAS-2B cells. It counts as cell-based. The conditions noted are these: Homo sapiens; inhibition of TGF-β stimulated pSMAD3 formation, BEAS-2B cells; read-out: BEAS2B pIC50 (converted). The essentials: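 SMAD3 phosphorylation was measured by AlphaLISA after 30 min TGF-β stimulation (10 ng/mL final) of BEAS-2B cells preincubated 1 h with compound at 37 °C. Results given as pIC50.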

As for `Cc1cccc(-c2n[nH]cc2-c2ccc3ncc(-c4nnc5n4CCNC5)cc3n2)n1` [Compound 40, 2-[3-(6-methyl-2-pyridyl)-1H-pyrazol-4-yl]-7-(5,6,7,8-tetrahydro-[1,2,4]triazolo[4,3-a]pyrazin-3-yl)-1,5-naphthyridine], in assay [1], the Ki is 3.98 to 31.6 nM. Besides, the IC50 in assay [2] is 1580 to 10000 nM.
For `CNC1CCN(c2cnc3ccc(-c4c[nH]nc4-c4cccc(C)n4)nc3c2)CC1` [Compound 45, N-methyl-1-[6-[3-(6-methyl-2-pyridyl)-1H-pyrazol-4-yl]-1,5-naphthyridin-3-yl]piperidin-4-amine] the same measures were < 0.0316 nM and 25.1 to 158 nM.
The like results for `Cc1nc(-c2[nH]cnc2-c2ccc3ncc(-c4cn[nH]c4)cc3n2)ccc1F` [Compound 536, 2-[5-(5-fluoro-6-methyl-2-pyridyl)-1H-imidazol-4-yl]-7-(1H-pyrazol-4-yl)-1,5-naphthyridine] were, in that order, < 0.0316 nM and < 20 nM.
On to `Cc1cccc(-c2n[nH]cc2-c2ccc3nccc(-c4cnco4)c3n2)n1` [Compound 824, 5-[6-[3-(6-methyl-2-pyridyl)-1H-pyrazol-4-yl]-1,5-naphthyridin-4-yl]oxazole], for which the Ki in assay [1] was 0.0398 to 0.316 nM. In addition, the IC50 in assay [2] is < 20 nM.
The like results for `Cc1cccc(-c2[nH]cnc2-c2ccc3ncc(-c4nc(C(=O)O)cs4)cc3c2)n1` [Compound 797, 2-(6-(5-(6-methylpyridin-2-yl)-1H-imidazol-4-yl)quinolin-3-yl)thiazole-4-carboxylic acid] were, in that order, 0.0398 to 0.316 nM and 1580 to 10000 nM.
The like results for `Cc1cccc(-c2[nH]ncc2-c2ccc3ncc(C(=O)O[C@@H]4CCNC4)cc3n2)n1` [Compound 195, [(3R)-pyrrolidin-3-yl] 6-[5-(6-methyl-2-pyridyl)-1H-pyrazol-4-yl]-1,5-naphthyridine-3-carboxylate] were, in that order, 0.398 to 3.16 nM and 25.1 to 158 nM.
The like results for `Cc1cccc(-c2n[nH]cc2-c2ccc3ncc(-c4cnc5n4CCNC5)cc3n2)n1` [Compound 548, 2-[3-(6-methyl-2-pyridyl)-1H-pyrazol-4-yl]-7-(5,6,7,8-tetrahydroimidazo[1,2-a]pyrazin-3-yl)-1,5-naphthyridine] were, in that order, 0.0398 to 0.316 nM and 25.1 to 158 nM.
On to `COC(=O)Cn1cc(-c2cnc3ccc(-c4c[nH]nc4-c4cccc(C)n4)nc3c2)cn1` [Compound 673, methyl 2-[4-[6-[3-(6-methyl-2-pyridyl)-1H-pyrazol-4-yl]-1,5-naphthyridin-3-yl]pyrazol-1-yl]acetate], for which the Ki in assay [1] is 0.0398 to 0.316 nM. Moreover, in assay [2], the IC50 was 25.1 to 158 nM.
As for `Cc1cccc(-c2n[nH]cc2-c2ccc3ncc(-c4ccccn4)cc3n2)n1` [Compound 518, 2-[3-(6-methyl-2-pyridyl)-1H-pyrazol-4-yl]-7-(2-pyridyl)-1,5-naphthyridine], the Ki in assay [1] was 0.0398 to 0.316 nM. Also, the IC50 in assay [2] was < 20 nM.
Consider `Cc1cccc(-c2n[nH]cc2-c2ccc3ncc(-c4nnn5c4CNCC5)cc3c2)n1` [Compound 343, 6-[3-(6-methyl-2-pyridyl)-1H-pyrazol-4-yl]-3-(4,5,6,7-tetrahydrotriazolo[1,5-a]pyrazin-3-yl)quinoline], for which the Ki in assay [1] was 0.0398 to 0.316 nM. In assay [2], the IC50 was 25.1 to 158 nM.
For `Cc1cccc(-c2n[nH]cc2-c2ccc3ncc(N4C[C@H]5C[C@@H]4CN5C)cc3n2)n1` (racemic) [Compound 437, 2-[3-(6-methyl-2-pyridyl)-1H-pyrazol-4-yl]-7-[rac-(1R,4R)-5-methyl-2,5-diazabicyclo[2.2.1]heptan-2-yl]-1,5-naphthyridine] the same measures were 0.398 to 3.16 nM and 25.1 to 158 nM.
The like results for `Cc1cccc(-c2n[nH]cc2-c2ccc3ncc(N4CCOCC4)cc3n2)n1` [Compound 78, 4-[6-[3-(6-methyl-2-pyridyl)-1H-pyrazol-4-yl]-1,5-naphthyridin-3-yl]morpholine] were, in that order, < 0.0316 nM and < 20 nM.

(Values after US11590116B2 (THERAVANCE BIOPHARMA R&D IP, LLC, priority 2019, dated 2023).)
